TGI and GI50 data for 13 molecules are collected here from PubChem BioAssay (NCI).

Molecules are shown by their SMILES. Several values for one entry are separate records, joined by “and”; a condition that tells them apart may be missing. Identical values can stand only once.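 Growth conditions: 96-well plates. Treatment: test compound, 48 hours, 5 concentrations. Analysis: linear interpolation between bracketing concentrations; unreached endpoints set to highest concentration. At the GI50, growth is halved. TGI is the concentration that stops growth completely.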 A value given as a limit tells only on which side of the number the result lay.

Test systems include COLO 205 colon; DU-145 prostate; HCC-2998 colon; MALME-3M melanoma; MCF7 breast; NCI/ADR-RES ovarian; OVCAR-8 ovarian; SK-MEL-28 melanoma; SK-MEL-5 melanoma; SK-OV-3 ovarian; HS 578T breast.
Holding throughout (test): NCI anticancer screen, dose series, 48 h

Consider `Nc1cc(N2CCCC2)nc(=O)n1-c1ccccc1`, for which the TGI in the assay with COLO 205 colon is over 100 µM; with DU-145 prostate, over 100 µM; in the assay with HCC-2998 colon, 75.6 µM; with MALME-3M melanoma it was over 100 µM; in the assay with MCF7 breast, over 100 µM; in the assay with NCI/ADR-RES ovarian it was over 100 µM. Besides, the TGI with OVCAR-8 ovarian, in the assay on SK-MEL-28 melanoma and in the assay with SK-MEL-5 melanoma was over 100 µM each time.
Consider `COc1ccc2[nH]cc([C@@H]3C4CCC(C4)[C@H]3NCc3cccc(CN[C@H]4C5CCC(C5)[C@@H]4c4c[nH]c5ccc(OC)cc45)c3)c2c1`, for which the GI50 is 0.206 µM in the assay on COLO 205 colon; 0.805 µM in the assay with MCF7 breast; 0.625 µM with OVCAR-8 ovarian; 1.67 µM and 1.68 µM in the assay on SK-MEL-28 melanoma; 1.25 µM in the assay on SK-MEL-5 melanoma; 1.6 µM with SK-OV-3 ovarian. In addition, the TGI in the assay with COLO 205 colon is 1.2 µM and 0.427 µM; in the assay on DU-145 prostate, 3.31 µM and 3.08 µM; in the assay on HCC-2998 colon, 0.53 µM and 0.842 µM; in the assay on MALME-3M melanoma, 3.32 µM and 3.31 µM; in the assay on MCF7 breast, 2.25 µM and 2.86 µM; with NCI/ADR-RES ovarian it was 3.04 µM and 2.98 µM. Also, the TGI with OVCAR-8 ovarian is 1.86 µM and 2.35 µM; with SK-MEL-28 melanoma it was 3.05 µM and 3.07 µM; in the assay on SK-MEL-5 melanoma it was 2.52 µM and 2.99 µM; with SK-OV-3 ovarian, 2.94 µM and 2.95 µM.
Take `O=S(=O)(O)c1ccc(N=Nc2c(O)ccc3cc(Br)ccc23)cc1`: the TGI in the assay with COLO 205 colon, with DU-145 prostate, in the assay on HS 578T breast, in the assay with MALME-3M melanoma, in the assay on NCI/ADR-RES ovarian and in the assay with OVCAR-8 ovarian was over 100 µM throughout. The TGI in the assay on SK-MEL-28 melanoma, with SK-MEL-5 melanoma and in the assay with SK-OV-3 ovarian was over 100 µM throughout.
In the case of `c1ccc(-n2nc3ccc4nonc4c3n2)cc1`, the TGI in the assay on COLO 205 colon, in the assay with DU-145 prostate, with HCC-2998 colon, in the assay on MALME-3M melanoma, in the assay with MCF7 breast and in the assay with NCI/ADR-RES ovarian was over 100 µM in each case. Besides, the TGI in the assay on OVCAR-8 ovarian, in the assay with SK-MEL-28 melanoma, in the assay with SK-MEL-5 melanoma and with SK-OV-3 ovarian was over 100 µM throughout.
Take `C1=C(c2ccccc2)Nc2nnnn2C1c1ccccc1` (configuration not stated): the TGI is over 100 µM with COLO 205 colon; 72.5 µM in the assay on DU-145 prostate; over 100 µM in the assay with HS 578T breast; 84.6 µM in the assay on MCF7 breast; over 100 µM with NCI/ADR-RES ovarian; over 100 µM in the assay with OVCAR-8 ovarian. The TGI in the assay on SK-MEL-5 melanoma and in the assay with SK-OV-3 ovarian was over 100 µM in each case.
As to `COC(CC1(/C=C/O[Si](C(C)C)(C(C)C)C(C)C)C(=O)N(C)c2ccccc21)OC` (configuration not stated), the TGI was over 100 µM with COLO 205 colon; over 100 µM with DU-145 prostate; over 100 µM in the assay on HCC-2998 colon; 45.2 µM in the assay on HS 578T breast; over 100 µM in the assay on MCF7 breast; 78.4 µM with NCI/ADR-RES ovarian. The TGI with OVCAR-8 ovarian, with SK-MEL-28 melanoma, in the assay on SK-MEL-5 melanoma and with SK-OV-3 ovarian was over 100 µM each time.
As to `N#Cc1c(N)[nH]c(=S)c(C#N)c1-c1ccccc1`, the TGI with DU-145 prostate, in the assay on HCC-2998 colon, in the assay on HS 578T breast, with MALME-3M melanoma, with MCF7 breast and in the assay with OVCAR-8 ovarian was over 100 µM throughout. Moreover, the TGI in the assay with SK-MEL-28 melanoma and with SK-MEL-5 melanoma was over 100 µM in each case.
Regarding `O=C(O)c1ccc(NC(NC(=O)C(C(F)(F)F)C(F)(F)F)(C(F)(F)F)C(F)(F)F)cc1`, the TGI in the assay with COLO 205 colon, in the assay with HCC-2998 colon, with HS 578T breast, in the assay with NCI/ADR-RES ovarian, with OVCAR-8 ovarian and with SK-MEL-28 melanoma was over 100 µM in each case. Further, the TGI in the assay on SK-MEL-5 melanoma and in the assay with SK-OV-3 ovarian was over 100 µM each time.
Regarding `C[n+]1c(-c2ccc(/C=N/NC(=O)C(=O)N/N=C/c3ccc(-c4cn5ccsc5[n+]4C)cc3)cc2)cn2ccsc21`, the TGI with COLO 205 colon, with HCC-2998 colon, with HS 578T breast, with MCF7 breast, in the assay with NCI/ADR-RES ovarian and in the assay with OVCAR-8 ovarian was over 100 µM each time. Moreover, the TGI in the assay with SK-MEL-28 melanoma, in the assay with SK-MEL-5 melanoma and with SK-OV-3 ovarian was over 100 µM throughout.
Turning to `CNC(=O)N(CCC#N)CCCN(C(=O)NC)c1ccccc1`, the TGI with COLO 205 colon, in the assay with DU-145 prostate, in the assay on HCC-2998 colon, with MALME-3M melanoma, in the assay with MCF7 breast and in the assay with NCI/ADR-RES ovarian was over 100 µM in each case. The TGI in the assay on OVCAR-8 ovarian, in the assay with SK-MEL-28 melanoma, with SK-MEL-5 melanoma and in the assay on SK-OV-3 ovarian was over 100 µM throughout.
On to `O=C(O)CCc1ccc2c(c1)C(=O)CC2`, for which the TGI in the assay on COLO 205 colon, with DU-145 prostate, in the assay with HCC-2998 colon, in the assay with MALME-3M melanoma, with MCF7 breast and with NCI/ADR-RES ovarian was over 100 µM throughout. Further, the TGI with OVCAR-8 ovarian, in the assay on SK-MEL-28 melanoma, in the assay with SK-MEL-5 melanoma and in the assay with SK-OV-3 ovarian was over 100 µM in each case.
In the case of `O=c1oc2ccccc2c(O)c1/C=N/C(=S)NCCc1ccccc1`, the TGI in the assay with COLO 205 colon, with DU-145 prostate, in the assay on HCC-2998 colon, in the assay on HS 578T breast, with MCF7 breast and with NCI/ADR-RES ovarian was over 100 µM throughout. In addition, the TGI in the assay with OVCAR-8 ovarian was over 100 µM; in the assay with SK-MEL-28 melanoma it was over 100 µM; with SK-MEL-5 melanoma it was over 100 µM; with SK-OV-3 ovarian, over 63.8 µM.
As for `COC(=O)[C@@H]1CN(C(C)=O)C(=O)N1C(=O)OCc1ccccc1`, the TGI with COLO 205 colon, with DU-145 prostate, in the assay on HCC-2998 colon, in the assay with HS 578T breast, in the assay on MALME-3M melanoma and in the assay on NCI/ADR-RES ovarian was over 100 µM throughout. Besides, the TGI in the assay with OVCAR-8 ovarian, in the assay with SK-MEL-28 melanoma, in the assay with SK-MEL-5 melanoma and in the assay with SK-OV-3 ovarian was over 100 µM throughout.
